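How tested: cells in 96-well plates exposed to compound for 48 hours at five concentrations. TGI marks complete inhibition of growth.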
Assays:
Test in all cases: inhibition of tumour cell growth, NCI panel, 48 h
[1] = test system: MALME-3M melanoma
[2] = test system: HOP-62 NSCLC
[3] = test system: HCT-116 colon
[4] = test system: NCI-H522 lung
[5] = test system: SK-MEL-28 melanoma
[6] = test system: SF-268 CNS
[7] = test system: A498 renal
[8] = test system: SF-295 CNS
[9] = test system: CCRF-CEM leukemia
[10] = test system: ACHN renal

Compound | TGI [1] | TGI [2] | TGI [3] | TGI [4] | TGI [5] | TGI [6] | TGI [7] | TGI [8] | TGI [9] | TGI [10]
CSCSSC | > 100 µM | > 100 µM | > 100 µM | > 100 µM | > 100 µM | > 100 µM | > 100 µM | > 100 µM | > 100 µM | > 100 µM
Cc1ccc(/C(O)=C/c2nc3ccccc3sc2=O)c(C)c1 | > 100 µM | 97.3 µM | > 100 µM | 62.1 µM | > 100 µM | > 100 µM | > 100 µM | > 100 µM | > 100 µM | > 100 µM
CC(C)=NN/C(=N\S(=O)(=O)c1ccc(Oc2cccc(Cl)c2C#N)cc1)Nc1ccc(Cl)cc1 | > 100 µM | > 100 µM | > 100 µM | > 100 µM | > 100 µM | > 100 µM | – | > 100 µM | > 100 µM | –
O=C1C[C@@H](C(=O)OCc2ccccc2)NC(=O)C[C@@H](C(=O)OCc2ccccc2)NC(=O)C[C@@H](C(=O)OCc2ccccc2)N1 | – | > 88.5 µM | > 100 µM | > 100 µM | > 100 µM | 85.8 µM | > 95.1 µM | > 100 µM | 2.01 µM | > 62.9 µM
O=[N+]([O-])c1ccc2sc(C=Nc3cnccn3)cc2c1 | > 100 µM | > 100 µM | > 100 µM | > 100 µM | > 100 µM | > 100 µM | 86 µM | > 100 µM | 40.4 µM | > 100 µM
NCCCN(CCCN(C(=O)Nc1ccccc1)c1ccccc1)C(=O)Nc1ccccc1 | 38.9 µM | 67.5 µM | > 100 µM | 43.1 µM | 34.1 µM | > 100 µM | > 100 µM | 58.3 µM | > 100 µM | > 100 µM
CCOC(=O)c1nc2ccc(C(F)(F)F)cc2nc1Oc1cc(OC)c(OC)c(OC)c1 | > 100 µM | > 100 µM | > 100 µM | – | > 100 µM | > 100 µM | > 100 µM | > 100 µM | – | > 100 µM
O=C1CCCCCCCCCCC1CN1CCCC1 (stereo not drawn) | > 100 µM | 34.7 µM | > 100 µM | > 100 µM | 55.6 µM | > 100 µM | > 100 µM | 86.3 µM | > 100 µM | > 100 µM
O=C1NC(=O)C(C(CC(=O)c2ccc([N+](=O)[O-])cc2)c2ccccc2)C(=O)N1 (stereo not drawn) | 42.9 µM | > 100 µM | 28 µM | > 100 µM | > 100 µM | > 100 µM | > 100 µM | 54.9 µM | > 100 µM | > 100 µM
NC(=O)c1cccc([N+](=O)[O-])c1 | > 100 µM | > 100 µM | – | > 100 µM | > 100 µM | > 100 µM | > 100 µM | > 100 µM | > 100 µM | –
CC(=O)N1CC(C)(C)c2c(C)c(O)c(C)c(C)c21 | – | > 100 µM | > 100 µM | > 100 µM | > 100 µM | > 100 µM | > 100 µM | > 100 µM | > 100 µM | > 100 µM
COc1ccc(C2=Nc3cc(C)c(C)cc3NC(c3ccccc3)C2)cc1 (stereo not drawn) | > 100 µM | > 100 µM | > 100 µM | > 100 µM | > 100 µM | > 100 µM | > 100 µM | > 100 µM | > 100 µM | > 100 µM
CC1C(=O)N(c2ccccc2)NC12CCCc1ccccc12 (stereo not drawn) | > 100 µM | > 100 µM | > 100 µM | > 100 µM | > 100 µM | > 100 µM | > 100 µM | > 100 µM | > 100 µM | > 100 µM
Cc1cc(S(=O)(=O)N/C(=C(\C#N)C(=O)c2ccc(Cl)cc2)[n+]2ccc(N(C)C)cc2)c([S-])cc1Cl | 80 µM | > 100 µM | 37.3 µM | > 100 µM | > 100 µM | > 100 µM | 56.6 µM | > 100 µM | > 100 µM | > 100 µM
CC(=C(c1ccccc1)c1ccccc1)N1C(=O)CC(=O)N1C | – | > 100 µM | > 100 µM | – | > 100 µM | > 100 µM | – | > 100 µM | 78.2 µM | > 100 µM
COc1ccc(N2C(=O)CC(=O)N(C(=O)COc3ccc(OCC(=O)N4C(=O)CC(=O)N(c5ccc(OC)cc5)C4=S)cc3)C2=S)cc1 | > 100 µM | – | 39.5 µM | > 100 µM | > 100 µM | > 100 µM | > 100 µM | > 100 µM | – | > 100 µM
C[N+](C)(C)c1ccc(C(N)C(=O)O)cc1 (stereo not drawn) | > 100 µM | > 100 µM | > 100 µM | > 100 µM | > 100 µM | > 100 µM | > 100 µM | > 100 µM | > 100 µM | > 100 µM
OCCO/N=C1\C(c2c(O)[nH]c3ccccc23)=Nc2ccccc21 | > 100 µM | > 100 µM | > 100 µM | > 100 µM | > 100 µM | > 100 µM | 0.875 µM | > 100 µM | > 100 µM | > 100 µM
COc1cc([C@@H]2c3cc4c(cc3[C@@H](c3c(O)cc(O)c5c3O[C@H](c3ccc(O)c(O)c3)[C@@H](O)C5)[C@H]3COC(=O)[C@H]23)OCO4)cc(OC)c1OC | > 100 µM | 3.76 µM | > 100 µM | > 100 µM | > 100 µM | > 100 µM | 2.95 µM | 3.45 µM | > 100 µM | 3.16 µM
CN(C)c1nc(N)nc(CS)n1 | – | > 100 µM | > 100 µM | > 100 µM | > 100 µM | > 100 µM | > 100 µM | > 100 µM | 98.9 µM | > 100 µM
Cc1cccc(Nc2nn3c(=O)c4c5c(sc4nc3s2)CCCC5)c1 | – | > 100 µM | > 100 µM | > 100 µM | > 100 µM | > 100 µM | – | 14.4 µM | > 100 µM | > 100 µM
C=C/C(C)=C\CC1[C@](C)(O)CC[C@H]2C(C)(C)C(=O)CC[C@]12C (stereo partly drawn) | > 100 µM | – | > 100 µM | > 100 µM | > 100 µM | > 100 µM | > 100 µM | > 100 µM | > 100 µM | > 100 µM

Source: PubChem BioAssay (NCI)
